Test systems include HCC-2998 colon; HCT-15 colon; MDA-MB-435; MOLT-4 leukemia; NCI-H226 lung; NCI-H460 lung; NCI/ADR-RES ovarian; OVCAR-4 ovarian; EKVX NSCLC; M14 melanoma.
Common to all, as to assay: DTP human tumour cell line panel, 48 h

Our source for the TGI and GI50 values is PubChem BioAssay (NCI).

Molecules are shown by their SMILES. Several values for one entry are separate records, joined by “and”; a condition that tells them apart may be missing. Equal entries are not always repeated.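 In this assay, cells in 96-well plates receive the compound at five concentrations for 48 hours. Endpoints are linearly interpolated between the surrounding concentrations. GI50: concentration for 50% inhibition of growth. TGI: total growth inhibition.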 Bounds are passed on as bounds.

For the molecule `Fc1ccc(C(OCCN2CC3CC2CN3)c2ccc(F)cc2)cc1` (stereo not drawn), the TGI is 30.4 µM in the test with HCC-2998 colon; > 100 µM with HCT-15 colon; 53.8 µM in the test on MDA-MB-435; > 100 µM with MOLT-4 leukemia; > 100 µM in the test on NCI-H226 lung; > 100 µM with NCI-H460 lung. Also, the TGI in the test with NCI/ADR-RES ovarian and in the test on OVCAR-4 ovarian was > 100 µM each time.

With `O=S(=O)(c1ccc2ccccc2c1)N1CCN(S(=O)(=O)c2ccc3ccccc3c2)CC1`, the TGI in the test with EKVX NSCLC, in the test on HCC-2998 colon, in the test with HCT-15 colon, in the test with M14 melanoma, in the test with MDA-MB-435 and in the test with NCI-H226 lung was > 100 µM in each case. For the same molecule, the TGI in the test on NCI-H460 lung, with NCI/ADR-RES ovarian and with OVCAR-4 ovarian was > 100 µM in each case.

In the case of `CO/C(=N\N=C(/c1ccccc1)C(F)(F)F)c1ccncc1`, the TGI with HCT-15 colon is > 100 µM; with M14 melanoma it was > 100 µM; with MDA-MB-435 it was > 100 µM; in the test on MOLT-4 leukemia, > 100 µM; in the test with NCI-H226 lung, 77.4 µM; in the test on NCI-H460 lung, > 100 µM. In addition, the TGI is 71.6 µM in the test with NCI/ADR-RES ovarian and > 100 µM in the test on OVCAR-4 ovarian.

Consider `CCN(CC)C(=S)SSCCO`, for which the GI50 in the test with EKVX NSCLC was 20.1 µM; in the test on HCC-2998 colon, 18.9 µM; in the test with HCT-15 colon, 17.9 µM; in the test with M14 melanoma, 14.2 µM; in the test with MDA-MB-435, 15.6 µM; with MOLT-4 leukemia it was 4.7 µM. Moreover, the GI50 with NCI-H226 lung is > 100 µM; with NCI/ADR-RES ovarian it was 17.1 µM; in the test on OVCAR-4 ovarian, 14.7 µM. The TGI in the test on EKVX NSCLC was 39.7 µM; in the test with HCC-2998 colon it was 43.3 µM; with HCT-15 colon it was 38.4 µM; in the test with M14 melanoma, 27.5 µM; in the test with MDA-MB-435, 31.7 µM; in the test with MOLT-4 leukemia, 21.7 µM. For the same molecule, the figures for the TGI in the test with NCI-H226 lung, with NCI/ADR-RES ovarian and in the test on OVCAR-4 ovarian were > 100 µM, 32.5 µM and 27.9 µM, respectively.

Regarding `Cc1cc(C)c(S(=O)(=O)N(CCCN)OCCCN)c(C)c1`, the concentration for total growth inhibition (TGI) with EKVX NSCLC, in the test with HCC-2998 colon, in the test with M14 melanoma, in the test on MDA-MB-435, in the test on MOLT-4 leukemia and in the test on NCI-H226 lung was > 100 µM each time. Also, the TGI in the test on NCI-H460 lung, in the test with NCI/ADR-RES ovarian and in the test with OVCAR-4 ovarian was > 100 µM in each case.

Take `O=C([O-])C1([n+]2c(-c3ccccc3)cc(-c3ccccc3)cc2-c2ccccc2)CC1`: the TGI in the test with EKVX NSCLC was > 100 µM; with HCC-2998 colon, > 100 µM; in the test on HCT-15 colon, > 100 µM; with M14 melanoma it was > 100 µM; with MDA-MB-435, 50.7 µM; with MOLT-4 leukemia, > 100 µM. For the same molecule, the total growth inhibition concentration (TGI) with NCI-H226 lung, with NCI-H460 lung, with NCI/ADR-RES ovarian and in the test on OVCAR-4 ovarian was > 100 µM throughout.

For the molecule `CC(=O)Nc1cc(/C=C\C(=O)N2CC(CCl)c3c2cc(N)c2ccccc32)n(C)n1` (stereo not drawn), the total growth inhibition concentration (TGI) was 0.0733 µM and 0.0826 µM in the test on HCC-2998 colon; > 100 µM in the test with HCT-15 colon; 0.0399 µM and 0.0497 µM with MDA-MB-435; 0.0357 µM in the test with MOLT-4 leukemia. Also, the GI50 with HCT-15 colon is 0.0167 µM; in the test on M14 melanoma, 0.0138 µM; with MDA-MB-435 it was 0.0131 µM; in the test on NCI-H226 lung, 0.0173 µM; with NCI/ADR-RES ovarian, 0.103 µM; with OVCAR-4 ovarian, 0.0216 µM.

Regarding `N=C(N)c1ccc(N=Nc2c(O)ccc3cc(O)ccc23)cc1`, the TGI in the test on EKVX NSCLC, in the test with HCC-2998 colon, with HCT-15 colon, in the test with M14 melanoma, with MDA-MB-435 and in the test with MOLT-4 leukemia was > 100 µM throughout. Moreover, the total growth inhibition concentration (TGI) with NCI-H226 lung, with NCI-H460 lung, in the test on NCI/ADR-RES ovarian and in the test on OVCAR-4 ovarian was > 100 µM throughout.

As to `CC1=NN(C(=O)c2ccc(C)cc2)C(=O)C1N=Nc1ccccc1C(=O)O` (stereo not drawn), the TGI in the test on EKVX NSCLC, with HCC-2998 colon, with HCT-15 colon, in the test on MOLT-4 leukemia, with NCI-H226 lung and with NCI-H460 lung was > 100 µM each time. Further, the TGI in the test with NCI/ADR-RES ovarian and in the test on OVCAR-4 ovarian was > 100 µM each time.

`CCOC(=O)[C@H]1Nc2c(cccc2[N+](=O)[O-])C2c3ccccc3CC21` (stereo partly drawn): the TGI with HCC-2998 colon, with HCT-15 colon, with M14 melanoma, in the test with MOLT-4 leukemia, with NCI-H226 lung and in the test on NCI-H460 lung was > 100 µM in each case. For the same molecule, the TGI in the test with OVCAR-4 ovarian is > 100 µM.

For `Cc1ccc2oc3c(ccc(=O)n3C)c(=O)c2c1`, the TGI with EKVX NSCLC, with HCC-2998 colon, in the test on HCT-15 colon, in the test on M14 melanoma, in the test with MDA-MB-435 and in the test on NCI-H226 lung was > 100 µM in each case. Also, the TGI in the test with NCI-H460 lung, in the test with NCI/ADR-RES ovarian and with OVCAR-4 ovarian was > 100 µM each time.

In the case of `O=c1[nH]c(=S)[nH]c2c(C3OC(CO)C(O)C3O)nsc12` (stereo not drawn), the TGI in the test with EKVX NSCLC, in the test on HCC-2998 colon, in the test on HCT-15 colon, with M14 melanoma, with MDA-MB-435 and in the test with MOLT-4 leukemia was > 100 µM in each case. Besides, the TGI in the test with NCI-H226 lung, with NCI-H460 lung, in the test with NCI/ADR-RES ovarian and in the test with OVCAR-4 ovarian was > 100 µM in each case.

`N/C(=N\N=C/c1cc([N+](=O)[O-])cc([N+](=O)[O-])c1O)NO`: the TGI in the test on EKVX NSCLC, with HCC-2998 colon, with HCT-15 colon, in the test with MOLT-4 leukemia, with NCI-H226 lung and in the test on NCI-H460 lung was > 100 µM in each case. Moreover, the TGI with NCI/ADR-RES ovarian and in the test with OVCAR-4 ovarian was > 100 µM each time.

On to `COc1cccc(/C=N/[N-]C(N)=O)c1[O-].[OH3+].[Pd+2]`, for which the total growth inhibition concentration (TGI) with EKVX NSCLC, in the test with HCC-2998 colon, with HCT-15 colon, in the test on M14 melanoma, in the test on MOLT-4 leukemia and with NCI-H226 lung was > 100 µM each time. Further, the total growth inhibition concentration (TGI) in the test with NCI-H460 lung and in the test on OVCAR-4 ovarian was > 100 µM each time.

With `CC(N)=O.[Cl][Pt][Cl].[NH-]c1ccn(C2OC(CO)C(O)C2O)c(=O)n1` (stereo not drawn), the concentration for total growth inhibition (TGI) in the test on EKVX NSCLC, in the test on HCT-15 colon, in the test with M14 melanoma, with MDA-MB-435, with MOLT-4 leukemia and with NCI-H226 lung was > 100 µM throughout. Moreover, the TGI in the test with NCI-H460 lung, in the test with NCI/ADR-RES ovarian and in the test with OVCAR-4 ovarian was > 100 µM in each case.

As to `CC1=CC(=O)c2c(O)c3c(c(O)c2C1=O)C1C(O)C(C3=O)C23C(=O)c4c(O)c(C)cc(O)c4C(O)=C2C(=O)CC(O)C13` (stereo not drawn), the TGI in the test on EKVX NSCLC was determined as 8.21 µM; in the test with HCC-2998 colon it was 10.2 µM; with HCT-15 colon, 6.91 µM; in the test with M14 melanoma, 10.5 µM; in the test with MDA-MB-435, 2.81 µM; with MOLT-4 leukemia it was 13 µM. Besides, the concentration for total growth inhibition (TGI) was found to be 6.56 µM with NCI-H226 lung, 5.23 µM in the test on NCI-H460 lung and 28 µM in the test on OVCAR-4 ovarian.

For `O=C(/C=C\c1ccc(/C=C/C(=O)Nc2cccc(C3=NCCCN3)c2)cc1)Nc1cccc(C2=NCCCN2)c1`, the TGI in the test with HCC-2998 colon, in the test on HCT-15 colon, in the test with MOLT-4 leukemia, with NCI-H460 lung, in the test with NCI/ADR-RES ovarian and in the test on OVCAR-4 ovarian was > 100 µM each time.

Regarding `Clc1cccc(C2SCc3nc4ccccc4n32)c1` (stereo not drawn), the TGI in the test on EKVX NSCLC is 52.4 µM; in the test on HCT-15 colon, 44 µM; in the test with M14 melanoma, 50.5 µM; in the test on MOLT-4 leukemia, > 100 µM; with NCI-H226 lung, 33.7 µM; with NCI-H460 lung, > 100 µM. Moreover, the TGI in the test with OVCAR-4 ovarian was > 100 µM.

A word on the TGI: it is the concentration at which net growth stops. As a reminder, the GI50 is the concentration giving 50% growth inhibition.
